B1: 2638A 1-180Mut-486: repaired full length construct, codon 180 TTG silently mutated to CTC, SEQ ID NO:4 (protein)
chain: MLTAIDYLTKKGWKISSDPRTYDGYPKNYGYRNYHENGINYDEFCGGYHRAFDVYSNETNDVPAVTSGTVIEANDYGNFGGTFVIRDANDNDWIYGHLQRGSMRFVVGDKVNQGDIIGLQGNSNYYDNPMSVHLHLQLRPKDAKKDEKSQVCSGLAMEKYDITNLNAKQDKSKNGSVKELKHIYSNHIKGNKITAPKPSIQGVVIHNDYGSMTPSQYLPWLYARENNGTHVNGWASVYANRNEVLWYHPTDYVEWHCGNQWANANLIGFEVCESYPGRISDKLFLENEEATLKVAADVMKSYGLPVNRNTVRLHNEFFGTSCPHRSWDLHVGKGEPYTTTNINKMKDYFIKRIKHYYDGGKLEVSKAATIKQSDVKQEVKKQEAKQIVKATDWKQNKDGIWYKAEHASFTVTAPEGIITRYKGPWTGHPQAGVLQKGQTIKYDEVQKFDGHVWVSWETFEGETVYMPVRTWDAKTGKVGKLWGEIKLEHHHHHH
modifications: Mutated Phage 2638a
B2: 2638A 180-486: engineered amidase-SH3b construct initiated at codon 180, SEQ ID NO:6 (protein)
chain: MKHIYSNHIKGNKITAPKPSIQGVVIHNDYGSMTPSQYLPWLYARENNGTHVNGWASVYANRNEVLWYHPTDYVEWHCGNQWANANLIGFEVCESYPGRISDKLFLENEEATLKVAADVMKSYGLPVNRNTVRLHNEFFGTSCPHRSWDLHVGKGEPYTTTNINKMKDYFIKRIKHYYDGGKLEVSKAATIKQSDVKQEVKKQEAKQIVKATDWKQNKDGIWYKAEHASFTVTAPEGIITRYKGPWTGHPQAGVLQKGQTIKYDEVQKFDGHVWVSWETFEGETVYMPVRTWDAKTGKVGKLWGEIKLEHHHHHH
modifications: Phage 2638a
B3: 2638A 139-486: truncated endolysin with full length amidase and SH3b domains, SEQ ID NO:5 (protein)
chain: MRPKDAKKDEKSQVCSGLAMEKYDITNLNAKQDKSKNGSVKELKHIYSNHIKGNKITAPKPSIQGVVIHNDYGSMTPSQYLPWLYARENNGTHVNGWASVYANRNEVLWYHPTDYVEWHCGNQWANANLIGFEVCESYPGRISDKLFLENEEATLKVAADVMKSYGLPVNRNTVRLHNEFFGTSCPHRSWDLHVGKGEPYTTTNINKMKDYFIKRIKHYYDGGKLEVSKAATIKQSDVKQEVKKQEAKQIVKATDWKQNKDGIWYKAEHASFTVTAPEGIITRYKGPWTGHPQAGVLQKGQTIKYDEVQKFDGHVWVSWETFEGETVYMPVRTWDAKTGKVGKLWGEIKLEHHHHHH
modifications: Phage 2638a

Columns and labels:
[1] = tested on: MRSA strain NRS382; experiment: Control of systemic MRSA infection in a murine model; type: in vivo, Staphylococcus aureus; conditions: for Mean NRS382 Titer in the Blood: Recovered 48 hr post infection from surviving mice, same doses
[2] = tested on: S. aureus strain NRS119 (SA LinR #12; linezolid resistant); experiment: Plate lysis assay (FIG. 3); type: cell-based; conditions: lawn on TSA plates, observed over days
Procedure: Purified proteins for each construct were diluted in sterile nickel column elution buffer, and 6 μL of lysostaphin (11 μg) or the constructs (0.2 nmoles or ˜11 μg for the repaired construct 2638A 1-180Mut-486) was spotted onto a freshly spread lawn of S. aureus strain NRS119 (SA LinR #12; linezolid resistant) growing cells that had air dried for 30 min on tryptic soy agar (TSA) plates. L=[…] Lysostaphin (Sigma); Spot 1=11 μg; all other constructs are 0.2 nmoles (˜11 μg for the repaired construct 2638A 1-180Mut-486) […]. The spotted plates were air dried for 10 min in a laminar flow hood and incubated overnight in a 37° C. environment. Scoring of the cleared spots occurred within 20 h of plating the cells.
The Plate Lysis assay results (FIG. 3) agree with the turbidity reduction assay. Each of the M23 peptidase dependent or SH3b-truncating constructs showing weak activity on S. aureus strain Newman strain. In addition to the Plate Lysis results in FIG. 3, we have also examined numerous strains with reduced but real lytic activity (Table 1). However, the plate lysis results with the 2638A endolysin constructs are extremely novel in appearance. Plate lysis results are routinely visualized as a discrete cleared spot on a lawn of bacteria after a single overnight of culture. […]

[3] = tested on: S. aureus strain Newman; experiment: Turbidity reduction assay; type: cell-based; conditions: 0.5 μM protein; live S. aureus Newman; Mn2+, Mg2+, Ca2+ 1 mM; FIG. 3
Procedure: The turbidity assay measures the drop in optical density (OD) resulting from lysis of the target bacteria with the phage endolysin-derived protein. Mid log phase (OD600 nm of 0.4-0.6) target cells were grown in Brain Heart Infusion (Becton Dickenson, Franklin Lakes, N.J.) and concentrated in lysing buffer A (LBA; 50 mM ammonium acetate, 10 mM CaCl2, 1 mM DTT at pH 6.2) to an OD600 nm of ˜2.0. The turbidity reduction assays were performed with identical molar amounts of proteins and S. aureus strain Newman with the addition of the bivalent metal cations Mn^2+, Mg^2+, and Ca^2+ at a concentration of 1 mM. The turbidity reduction assay contained 0.5 μM protein (5.7 μg of full length repaired construct: 2638A 1-180Mut-486 in 200 μl assay) unless otherwise noted. Lane 1, 2638A 1-486 (5.7 μg total protein in 200 μl assay); Lane 2, 2638A 1-196; Lane 3, 2638A 1-220; Lane 4, 2638A 1-244; Lane 5, 2638A 1-220::355-486; Lane 6, 2638A 1-411; Lane 7, 2638A 139-411; Lane 8, 2638A 139-486; Lane 9, 2638A 180-486; Lane 10, 2638A 1-180Mut-486. Mixing reactions between the repaired full length construct 2638A 1-180Mut-486 (R) and the engineered amidase-SH3b construct 2638A 180-486 (A) were performed in the following ratios Lane 11, R:A::1:1, 1 μM; Lane 12, R:A::1:1, 0.5 μM; Lane 13, R:A::1:3, 0.5 μM; and Lane 14, R:A::3:1, 0.5 μM. Optical Density measurements are taken at regular intervals. If the lysin can digest the cell wall, lysis will occur with a subsequent reduction in OD. Changes in the OD600 nm in the control sample (cells alone) were subtracted from samples containing both cells and lysin, before calculating the specific activity. Specific Activity=ΔOD600 nm/μM/min.

[4] = tested on: S. aureus strain Newman; experiment: Zymogram analysis; type: cell-based; conditions: 5 μg loaded; SDS treated S. aureus Newman embedded in gel; FIG. 1C
Description: Zymograms are not usually interpreted quantitatively (especially since these were loaded with μg equivalents and not molar equivalents of enzyme) but rather are used to indicate that the minor contaminating bands in the preparations are not contributing to the activity of the preparation. There was virtually no activity from any of the minor (non-shadow) bands in the zymogram assay after extended periods. However, the presence of nearly equal amounts of the active shadow band (from stained SDS gel) in many preparations negated the ability to quantify the activity from either the isolated amidase domain (2638A 139-411; 2638A 139-486) or the full length construct.

[5] = 0 hours, Balb/c mice, I.P. 4×10^7 CFU, treated 30 min post infection: 2638A 200 μg/mouse I.P., Vancomycin 375 μg/mouse s.c., Oxacillin 1250 μg/mouse s.c.

Molecule | % Survival [1, 5] [%] | % Survival ([1]; 4 hours, same model and doses) [%] | % Survival ([1]; 8 hours, same model and doses) [%] | % Survival ([1]; 12 hours, same model and doses) [%] | % Survival ([1]; 16 hours, same model and doses) [%] | % Survival ([1]; 20 hours, same model and doses) [%] | % Survival ([1]; 24 hours, same model and doses) [%] | % Survival ([1]; 28 hours, same model and doses) [%] | % Survival ([1]; 32 hours, same model and doses) [%] | % Survival ([1]; 36 hours, same model and doses) [%] | % Survival ([1]; 40 hours, same model and doses) [%] | % Survival ([1]; 44 hours, same model and doses) [%] | Mean NRS382 Titer in the Blood [1] | activity in the turbidity reduction assay [3] | also measured
Cc1onc(-c2ccccc2)c1C(=O)N[C@@H]1C(=O)N2[C@@H]1SC(C)(C)[C@@H]2C(=O)O [Oxacillin] | 100 | 100 | 100 | 100 | 100 | 40 | 40 | 30 | 30 | 30 | 30 | 30 | 0.9 ± 1.6 × 10^3 CFU/ml |  | survival rate ([1]; after 16 to 20 hours, same model and doses): less than 40%; average septicemia score ([1]; at 20 hours post infection, maintained until the end, score 0-5 per Table 4): approximately 4
CN[C@H](CC(C)C)C(=O)N[C@H]1C(=O)N[C@@H](CC(N)=O)C(=O)N[C@H]2C(=O)N[C@H]3C(=O)N[C@H](C(=O)N[C@H](C(=O)O)c4cc(O)cc(O)c4-c4cc3ccc4O)[C@H](O)c3ccc(c(Cl)c3)Oc3cc2cc(c3O[C@@H]2O[C@H](CO)[C@@H](O)[C@H](O)[C@H]2O[C@H]2C[C@](C)(N)[C@H](O)[C@H](C)O2)Oc2ccc(cc2Cl)[C@H]1O [Vancomycin] | 100 | 100 | 100 | 100 | 100 | 100 | 100 | 100 | 100 | 100 | 100 | 100 | 1.8 ± 3.3 × 10^1 CFU/ml |  | % Survival ([1]; 48 hours (end of the experiment), same model and doses): 100%; septicemia score at the end of the experiment ([1]; 48 hours, score 0-5 per Table 4): 0
Lysostaphin: Lysostaphin (Sigma), peptidoglycan hydrolase control in plate lysis [reference compound] |  |  |  |  |  |  |  |  |  |  |  |  |  |  | appearance and persistence of the cleared zone in plate lysis [2]: cleared zone remains that way for days or weeks
B1 |  |  |  |  |  |  |  |  |  |  |  |  |  | appreciable activity | 
B2 |  |  |  |  |  |  |  |  |  |  |  |  |  | appreciable activity | 
B3 |  |  |  |  |  |  |  |  |  |  |  |  |  | appreciable activity | staphylolytic activity (zones of clearing) in the zymogram [4]: active
